The conditions of data set [1]: human gut metagenome, 24 h, 2 µM.
Data set [2] in a line: The drug is tested on Z-012 corresponding to metagenome with ENA study accession number: PRJEB37062 and ENA sample accession number: ERS12561812 for biotransformation under anaerobic condition. The drug concentrations were measured over 9 timepoints collected between 0 and 24 hours of incubation by liquid-chromatography-coupled mass spectrometry (LC–MS). The conditions noted are these: 2 µM.

For data set [3] the following is noted: human gut metagenome, 24 h, 2 µM. The source holds these as a separate data set.
Data set [4] in a line: The drug is tested on Z-010 corresponding to metagenome with ENA study accession number: PRJEB37062 and ENA sample accession number: ERS12561810 for biotransformation under anaerobic condition. The drug concentrations were measured over 9 timepoints collected between 0 and 24 hours of incubation by liquid-chromatography-coupled mass spectrometry (LC–MS). The conditions noted are these: 2 µM.

Data set [5] can be described thus: The drug is tested on WLS-098 corresponding to human gut metagenome with ENA study accession number: PRJEB37062 and ENA sample accession number: ERS12561754 for biotransformation under anaerobic condition. The drug concentrations were measured over 9 timepoints collected between 0 and 24 hours of incubation by liquid-chromatography-coupled mass spectrometry (LC–MS). The conditions noted are these: 2 µM.

The conditions of data set [6]: human gut metagenome, 24 h, 2 µM. The source holds these as a separate data set.
A short description of data set [7]: The drug is tested on Z-003 corresponding to pig gut metagenome with ENA study accession number: PRJEB37062 and ENA sample accession number: ERS12561803 for biotransformation under anaerobic condition. The drug concentrations were measured over 9 timepoints collected between 0 and 24 hours of incubation by liquid-chromatography-coupled mass spectrometry (LC–MS). Conditions: 2 µM.

A short description of data set [8]: The drug is tested on WLS-077 corresponding to human gut metagenome with ENA study accession number: PRJEB37062 and ENA sample accession number: ERS12561750 for biotransformation under anaerobic condition. The drug concentrations were measured over 9 timepoints collected between 0 and 24 hours of incubation by liquid-chromatography-coupled mass spectrometry (LC–MS). Conditions: 2 µM.

Data set [9] is described as follows: The drug is tested on WLS-310 corresponding to human gut metagenome with ENA study accession number: PRJEB37062 and ENA sample accession number: ERS12561785 for biotransformation under anaerobic condition. The drug concentrations were measured over 9 timepoints collected between 0 and 24 hours of incubation by liquid-chromatography-coupled mass spectrometry (LC–MS). Conditions: 2 µM.

Data set [10] in a line: The drug is tested on WLS-010 corresponding to human gut metagenome with ENA study accession number: PRJEB37062 and ENA sample accession number: ERS12561743 for biotransformation under anaerobic condition. The drug concentrations were measured over 9 timepoints collected between 0 and 24 hours of incubation by liquid-chromatography-coupled mass spectrometry (LC–MS). Conditions: 2 µM.

For data set [11] the following is noted: human gut metagenome, 24 h, 2 µM. The source holds these as a separate data set.
The conditions of data set [12]: human gut metagenome, 24 h, 2 µM. This is another data set of the same source.
The conditions of data set [13]: human gut metagenome, 24 h, 2 µM. The source holds these as a separate data set.
The nature of data set [14]: The drug is tested on Z-014 corresponding to rat gut metagenome with ENA study accession number: PRJEB37062 and ENA sample accession number: ERS12561814 for biotransformation under anaerobic condition. The drug concentrations were measured over 9 timepoints collected between 0 and 24 hours of incubation by liquid-chromatography-coupled mass spectrometry (LC–MS). The conditions noted are these: 2 µM.

For data set [15] the following is noted: human gut metagenome, 24 h, 2 µM. The source holds these as a separate data set.
Data set [16] can be described thus: The drug is tested on Z-008 corresponding to metagenome with ENA study accession number: PRJEB37062 and ENA sample accession number: ERS12561808 for biotransformation under anaerobic condition. The drug concentrations were measured over 9 timepoints collected between 0 and 24 hours of incubation by liquid-chromatography-coupled mass spectrometry (LC–MS). Conditions: 2 µM.

Data set [17] can be described thus: The drug is tested on Z-026 corresponding to metagenome with ENA study accession number: PRJEB37062 and ENA sample accession number: ERS12561825 for biotransformation under anaerobic condition. The drug concentrations were measured over 9 timepoints collected between 0 and 24 hours of incubation by liquid-chromatography-coupled mass spectrometry (LC–MS). Conditions: 2 µM.

Data set [18] can be described thus: The drug is tested on Z-006 corresponding to mouse gut metagenome with ENA study accession number: PRJEB37062 and ENA sample accession number: ERS12561806 for biotransformation under anaerobic condition. The drug concentrations were measured over 9 timepoints collected between 0 and 24 hours of incubation by liquid-chromatography-coupled mass spectrometry (LC–MS). Conditions: 2 µM.

The conditions of data set [19]: human gut metagenome, 24 h, 2 µM. The source holds these as a separate data set.
For data set [20] the following is noted: human gut metagenome, 24 h, 2 µM. This is another data set of the same source.

These results are taken from ChEMBL document CHEMBL5724914, “Linking interpersonal differences in gut microbiota composition and drug biotransformation activity” (2024).
Also: call rule not given here.

As for `CCN(CC)CCNC(C(=O)OCCC(C)C)c1ccccc1.Cl.Cl` (stereo not given), the “Bacterial Biotransformation” value in data set [1] is on record as “Compound metabolized”; in data set [2], “Compound NOT metabolized”; in data set [3], “Compound metabolized”; in [4], “Compound metabolized”; in [5] it was “Compound metabolized”; in [6], “Compound metabolized”. Also, the “Bacterial Biotransformation” value in [7] is reported as “Compound metabolized”; in data set [8] it was “Compound metabolized”; in [9], “Compound metabolized”; in data set [10] it was “Compound metabolized”; in data set [11], “Compound NOT metabolized”; in data set [12] it was “Compound metabolized”. Besides, the “Bacterial Biotransformation” value is on record as “Compound NOT metabolized” in data set [13]; “Compound NOT metabolized” in data set [14]; “Compound metabolized” in data set [15]; “Compound NOT metabolized” in data set [16]; “Compound NOT metabolized” in data set [17]; “Compound NOT metabolized” in data set [18]. For the same molecule, the “Bacterial Biotransformation” value in data set [19] and in [20] was “Compound metabolized” throughout.
Take `CCCC(=O)Nc1ccc(OCC(O)CNC(C)C)c(C(C)=O)c1` (stereo not given) [ACEBUTOLOL]: the “Bacterial Biotransformation” value is recorded as “Compound metabolized” in data set [1]; “Compound NOT metabolized” in data set [2]; “Compound NOT metabolized” in [3]; “Compound NOT metabolized” in [4]; “Compound metabolized” in [5]; “Compound NOT metabolized” in data set [6]. For the same molecule, the “Bacterial Biotransformation” value in data set [7] was “Compound metabolized”; in data set [8], “Compound NOT metabolized”; in data set [9], “Compound metabolized”; in data set [10] it was “Compound NOT metabolized”; in data set [11], “Compound metabolized”; in [12], “Compound metabolized”. In addition, the “Bacterial Biotransformation” value in data set [13] is on record as “Compound metabolized”; in data set [14], “Compound NOT metabolized”; in data set [15], “Compound metabolized”; in data set [16], “Compound NOT metabolized”; in [17] it was “Compound NOT metabolized”; in data set [18], “Compound NOT metabolized”. The “Bacterial Biotransformation” value in data set [19] and in data set [20] was “Compound metabolized” each time.
On to `C=CCc1ccccc1OCC(O)CNC(C)C` (stereo not given) [ALPRENOLOL], for which the “Bacterial Biotransformation” value in data set [1] is recorded as “Compound metabolized”; in [2], “Compound NOT metabolized”; in data set [3] it was “Compound NOT metabolized”; in data set [4], “Compound NOT metabolized”; in data set [5], “Compound metabolized”; in data set [6] it was “Compound NOT metabolized”. The “Bacterial Biotransformation” value in data set [7] is given as “Compound metabolized”; in data set [8], “Compound NOT metabolized”; in data set [9], “Compound NOT metabolized”; in data set [10] it was “Compound NOT metabolized”; in data set [11] it was “Compound NOT metabolized”; in data set [12], “Compound NOT metabolized”. Further, the “Bacterial Biotransformation” value in [13] is “Compound NOT metabolized”; in [14], “Compound NOT metabolized”; in data set [15] it was “Compound metabolized”; in [16], “Compound NOT metabolized”; in [17], “Compound metabolized”; in data set [18], “Compound NOT metabolized”. Also, the “Bacterial Biotransformation” value in data set [19] and in [20] was “Compound metabolized” throughout.
Turning to `CCOC(=O)[C@H](CCc1ccccc1)N[C@H]1CCc2ccccc2N(CC(=O)O)C1=O` [BENAZEPRIL], the “Bacterial Biotransformation” value in data set [1], in data set [2], in data set [3], in data set [4], in [5] and in [6] was “Compound metabolized” each time. Also, the “Bacterial Biotransformation” value in data set [7], in [8], in [9], in data set [10], in data set [11] and in [12] was “Compound metabolized” in each case. Moreover, the “Bacterial Biotransformation” value in [13] is given as “Compound NOT metabolized”; in data set [14], “Compound NOT metabolized”; in data set [15], “Compound metabolized”; in data set [16] it was “Compound metabolized”; in [17], “Compound metabolized”; in data set [18] it was “Compound metabolized”. Moreover, the “Bacterial Biotransformation” value in data set [19] and in data set [20] was “Compound metabolized” in each case.
In the case of `NS(=O)(=O)c1cc2c(cc1Cl)N=C(CSCc1ccccc1)NS2(=O)=O` [BENZTHIAZIDE], the “Bacterial Biotransformation” value in [1], in data set [2], in [3], in data set [4], in data set [5] and in data set [6] was “Compound NOT metabolized” in each case. In addition, the “Bacterial Biotransformation” value in data set [7], in data set [8], in [9], in data set [10], in [11] and in data set [12] was “Compound NOT metabolized” each time. Further, the “Bacterial Biotransformation” value in [13], in [14], in [15], in data set [16], in [17] and in data set [18] was “Compound NOT metabolized” throughout. In addition, the “Bacterial Biotransformation” value in [19] and in data set [20] was “Compound NOT metabolized” throughout.
As to `CC(C)NCC(O)COc1ccc(COCCOC(C)C)cc1.CC(C)NCC(O)COc1ccc(COCCOC(C)C)cc1.O=C(O)/C=C/C(=O)O` (stereo not given) [BISOPROLOL FUMARATE], the “Bacterial Biotransformation” value in [1] is reported as “Compound metabolized”; in [2], “Compound NOT metabolized”; in data set [3], “Compound metabolized”; in data set [4], “Compound NOT metabolized”; in data set [5] it was “Compound metabolized”; in data set [6], “Compound NOT metabolized”. Besides, the “Bacterial Biotransformation” value in [7] is “Compound metabolized”; in data set [8], “Compound NOT metabolized”; in [9] it was “Compound NOT metabolized”; in [10] it was “Compound NOT metabolized”; in data set [11] it was “Compound NOT metabolized”; in [12], “Compound NOT metabolized”. The “Bacterial Biotransformation” value is “Compound NOT metabolized” in data set [13]; “Compound NOT metabolized” in [14]; “Compound metabolized” in [15]; “Compound NOT metabolized” in [16]; “Compound NOT metabolized” in data set [17]; “Compound NOT metabolized” in data set [18]. The “Bacterial Biotransformation” value in data set [19] and in data set [20] was “Compound NOT metabolized” throughout.
